In ChEMBL document CHEMBL1122427, “Structure-activity studies of highly potent cyclic [Cys4,Cys10]Melanotropin analogues” (J Med Chem, 1983):

Key:
frog = assay: Evaluated for relative potency in stimulating melanosome dispersion against Frog skin melanophores (Rana pipiens); format: functional
lizard = assay: Evaluated for relative potency in stimulating melanosome dispersion against Lizard skin (Anolis carolinensis).; format: functional

| SMILES | Relative potency (frog) | Relative potency (lizard) |
| --- | --- | --- |
| CC(=O)N[C@@H]1CSSC[C@H](C(=O)N[C@H](CCCCN)C(=O)N2CCC[C@@H]2C(=O)N[C@@H](C(N)=O)C(C)C)NC(=O)[C@@H](Cc2c[nH]c3ccccc23)NC(=O)[C@H](CCCN=C(N)N)NC(=O)[C@@H](Cc2ccccc2)NC(=O)[C@H](Cc2c[nH]cn2)NC(=O)[C@@H](CCC(=O)O)NC1=O | 10000 | 1.6 |
| CC(=O)N[C@@H](CO)C(=O)N[C@@H](Cc1ccc(O)cc1)C(=O)N[C@@H](CO)C(=O)N[C@@H]1CSSC[C@H](C(=O)N[C@H](CCCCN)C(=O)N2CCC[C@@H]2C(=O)N[C@@H](C(N)=O)C(C)C)NC(=O)[C@@H](Cc2c[nH]c3ccccc23)NC(=O)[C@H](CCCN=C(N)N)NC(=O)[C@@H](Cc2ccccc2)NC(=O)[C@H](Cc2c[nH]cn2)NC(=O)[C@@H](CCC(=O)O)NC1=O | 10000 | 32 |
| CSCC[C@H](NC(C)=O)C(=O)N[C@@H](CCC(=O)O)C(=O)N[C@@H](Cc1c[nH]cn1)C(=O)N[C@@H](Cc1ccccc1)C(=O)N[C@@H](CCCN=C(N)N)C(=O)N[C@@H](Cc1c[nH]c2ccccc12)C(=O)NCC(N)=O | 0.0006 | 0.02 |
| CC(=O)N[C@@H]1CSSC[C@H](C(N)=O)NC(=O)[C@@H](Cc2c[nH]c3ccccc23)NC(=O)[C@H](CCCN=C(N)N)NC(=O)[C@@H](Cc2ccccc2)NC(=O)[C@H](Cc2c[nH]cn2)NC(=O)[C@@H](CCC(=O)O)NC1=O | 0.07 | 0.003 |
